The results in this text go back to ChEMBL document CHEMBL4251729, “Novel Triterpenone for Treatment of Viral Diseases-HIV Inhibitors” (ACS Med Chem Lett, 2018).

Usually IC50 stands for the midpoint of a concentration-inhibition curve.

Structures are written as SMILES.

For assay [1], the system named is Human immunodeficiency virus 1. The assay is described as follows: Antiviral activity against HIV1 92HT599 infected in human MT2 cells assessed as reduction in p24 production in presence of 40% serum by ELISA. The following applies: Human immunodeficiency virus 1, 92HT599, MT2. The assay is classed as functional, organism-based. (In general: An ELISA detects its analyte on a solid surface through an enzyme-linked reagent.)

For assay [2], the system named is Human immunodeficiency virus 1. The assay can be described thus: Antiviral activity against HIV1 92HT599 infected in human MT2 cells assessed as reduction in p24 production in absence of serum by ELISA. It is filed as functional, organism-based.
Where [3] appears, read: Human immunodeficiency virus 1, 92HT599, MT2.

For the compound `CC(C)C1=C2[C@H]3CC[C@@H]4[C@@]5(C)CC[C@H](OC(=O)[C@H]6C[C@@H](C(=O)O)C6(C)C)C(C)(C)[C@@H]5CC[C@@]4(C)[C@]3(C)CC[C@@]2(c2ncc(-c3ccccc3)[nH]2)CC1=O`, the IC50 in assay [1] was 10 to 50 nM; in assay [2] (setting [3]) it was below 10 nM.

For `CC(C)C1=C2[C@H]3CC[C@@H]4[C@@]5(C)CC[C@H](OC(=O)[C@H]6C[C@@H](C(=O)O)C6(C)C)C(C)(C)[C@@H]5CC[C@@]4(C)[C@]3(C)CC[C@@]2(c2ncc(-c3ccc(F)cc3)[nH]2)CC1=O`, the figures for the IC50 in assay [1] and in assay [2] (setting [3]) were above 50 nM and below 10 nM, respectively.

Take `CC(C)C1=C2[C@H]3CC[C@@H]4[C@@]5(C)CC[C@H](OC(=O)[C@H]6C[C@@H](C(=O)O)C6(C)C)C(C)(C)[C@@H]5CC[C@@]4(C)[C@]3(C)CC[C@@]2(c2ncc(-c3ccc(Cl)cc3)n2CCN(C)C)CC1=O` [listing 1 of 2 here]: in assay [2] (setting [3]), the concentration for half-maximal inhibition (IC50) lay within 10 to 50 nM.

For `CC(C)C1=C2[C@H]3CC[C@@H]4[C@@]5(C)CC[C@H](OC(=O)[C@H]6C[C@@H](C(=O)O)C6(C)C)C(C)(C)[C@@H]5CC[C@@]4(C)[C@]3(C)CC[C@@]2(c2nnc(-c3ccc(Cl)cc3)o2)CC1=O`, the 50% inhibitory concentration (IC50) in assay [1] and in assay [2] (setting [3]) was below 10 nM throughout.

On to `CC(C)C1=C2[C@H]3CC[C@@H]4[C@@]5(C)CC[C@H](OC(=O)[C@H]6C[C@@H](C(=O)O)C6(C)C)C(C)(C)[C@@H]5CC[C@@]4(C)[C@]3(C)CC[C@@]2(c2ncc(-c3ccc(Cl)cc3)[nH]2)CC1=O`, for which the IC50 is 10 to 50 nM in assay [1] and below 10 nM in assay [2] (setting [3]).

`CC(C)C1=C2[C@H]3CC[C@@H]4[C@@]5(C)CC[C@H](OC(=O)[C@H]6C[C@@H](C(=O)O)C6(C)C)C(C)(C)[C@@H]5CC[C@@]4(C)[C@]3(C)CC[C@@]2(c2ncc(-c3ccc(Cl)cc3)n2CCN(C)C)CC1=O` [listing 2 of 2 here]: the IC50 is above 50 nM in assay [1] and below 10 nM in assay [2].
